The source of these data is US20230372433A1, “NANOPARTICLE FOR ANTI-CANCER PEPTIDES AND USES THEREOF” (KING'S COLLEGE LONDON, priority 2020, published 2023).

Data set [1] concerns MCF-10A (human breast epithelial cell). Kind of data set: cells. The following applies: read-out: IC50 MCF-10A.
Data set [2] relates to HMLER-shEcad mammospheres. Briefly: Tumoursphere formation and viability assay. Type of data set: cell-based, human.
In data set [3] the test system is U2OS (human bone osteosarcoma). Briefly: MTT cytotoxicity assay, U2OS. Type of data set: cell-based. The conditions noted are these: 72 hr.
The test system of data set [4] is HEK293T (human embryonic kidney cell). Kind of data set: MTT cytotoxicity assay, HEK293T. Type of data set: cell-based. The conditions noted are these: read-out: IC50 HEK293T.
Data set [5] concerns HMLER-shEcad (human breast cancer stem cell). Briefly: MTT cytotoxicity assay, HMLER-shEcad. Type of data set: cell-based.
Data set [6] deals with HMLER (human breast cancer bulk cell). Briefly: MTT cytotoxicity assay, HMLER. It is filed as cell-based. The following applies: read-out: IC50 HMLER. On the technique in general: Tetrazolium dyes change colour on reduction, which living cells bring about.
For the next data set, the system named is HMLER-shEcad cells. Kind of data set: HMLER-shEcad viability with co-incubated necrostatin or z-VAD-FMK. Type of data set: cell-based, human.
Data set [7] is described as follows: ANTS/DPX liposome leakage assay, POPC vesicles. It is filed as biochemical. The following applies: 0.5 mM vesicles. The essentials: (§1)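 0.5 mM extruded 100 nm LUVs loaded with 5 mM ANTS/12.5 mM DPX were incubated 3 h with peptide at 0–20 μM in PBS pH 7.4 or HCl-adjusted PBS pH 4.8. Fluorescence read at ex 350/em 510 nm; 10% Triton set maximum leakage; values expressed as lipid per peptide.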

Data set [8] is described as follows: Tryptophan fluorescent binding assay, 3POPC/1POPG vesicles. The following applies: 50 μM peptide, PBS pH 7.4. The method, boiled down:
(§2)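 Tryptophan fluorescence was measured with peptide fixed at 50 μM and POPC or 3POPC/1POPG LUVs (100 nm extruded) titrated 0–5000 μM in PBS pH 7.4, read after 60 min. Excitation was 280 nm and emission 300–450 nm. The value is the lipid concentration giving 50% peptide binding, expressed as lipid per peptide.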

Data set [9] in a line: Tryptophan fluorescent binding assay, POPC vesicles. The conditions noted are these: 50 μM peptide, PBS pH 7.4. The essentials:
as §2

For the next data set, the system named is human red blood cells. The method, then: Peptides were serially diluted in PBS starting at a concentration of 100 μM. The final volume of peptide in each well was 50 μL. To each well, 50 μL of RBCs in PBS at 2×10^8 cells/mL was added. As a positive lysis control, 1% triton was used. The mixtures were incubated at 37° C. for 1 hour, after which they were centrifuged at 1000x g for 5 minutes. After centrifugation, 10 μL of supernatant was transferred to 90 μL of DI H2O in a fresh 96-well plate. The absorbance of released hemoglobin at 410 nm was recorded and the fractional hemolysis was calculated based on the 100% and 0% lysis controls.

Data set [10] in a line: ANTS/DPX liposome leakage assay, 3POPC/1POPG vesicles. It is filed as biochemical. The following applies: for Peptide Concentration-induced 50% ANTS/DPX leakage at pH 4.8 (L/P) 3POPC/1POPG Vesicle / Peptide Concentration-induced 50% ANTS/DPX leakage at pH 7.4 (L/P) 3POPC/1POPG Vesicle: 0.5 mM vesicles. The essentials:
as §1

The mark [11] stands for this setting: 72 hr, MTT, read-out: IC50 HMLER-shEcad.

Like-named read-outs stand apart in the source and are kept apart here. [ ]: non-standard residue; d: D form.

What is called IC50 is the point on the concentration scale where inhibition reaches its midpoint. Consider `COc1cccc2c1C(=O)c1c(O)c3c(c(O)c1C2=O)C[C@@](O)(C(=O)CO)C[C@@H]3O[C@H]1C[C@H](N)[C@H](O)[C@H](C)O1` [Doxorubicin, reference compound], for which the IC50 stood at 640 nM in data set [1] (Homo sapiens, MCF-10A, 72 h); 15 nM in data set [3] (Homo sapiens, U2OS); 0.11 nM in [4] (Homo sapiens, HEK-293T, 72 hr, MTT); 3 nM in data set [5] (Homo sapiens, 72 hr, MTT, read-out: IC50 HMLER-shEcad); 2.5 ± 0.3 nM in data set [5] (Homo sapiens, two-dimensional culture, read-out: IC50 against two-dimensional HMLER-shEcad); 2.5 nM in data set [6] (Homo sapiens, 72 hr, MTT). The “fold decrease in activity, mammospheres versus two-dimensional HMLER-shEcad” value in [2] is on record as 1,700 fold. In the data set on HMLER-shEcad cells, the “cell viability on co-incubation with necrostatin or z-VAD-FMK” value (shortened to “cell viability on co-incubation”) is recorded as “can be dramatically improved”.

For `CC(C)C[C@H](NC(=O)CN)C(=O)N[C@@H](CC(C)C)C(=O)N[C@@H](CCC(=O)O)C(=O)N[C@@H](CC(C)C)C(=O)N[C@@H](CC(C)C)C(=O)N[C@@H](CCC(=O)O)C(=O)N[C@@H](CC(C)C)C(=O)N[C@@H](CC(C)C)C(=O)N[C@@H](CC(C)C)C(=O)N[C@@H](CCCCN)C(=O)N[C@@H](C)C(=O)N[C@@H](C)C(=O)NCC(=O)N[C@@H](Cc1c[nH]c2ccccc12)C(N)=O` [EEK], in data set [7], the “Peptide Concentration-induced 50% ANTS/DPX leakage at pH 4.8 (L/P) POPC Vesicle” value is given as 39 L/P and the “Peptide Concentration-induced 50% ANTS/DPX leakage at pH 7.4 (L/P) POPC Vesicle” value turned out to be 730 L/P. In addition, the “Lipid Concentration-induced 50% Peptide Binding (L/P) 3POPC/1POPG Vesicle” value in data set [8] is 4.50 L/P. For the same compound, the “Lipid Concentration-induced 50% Peptide Binding (L/P) POPC Vesicle” value in [9] came out at 0.48 L/P. In the data set with human red blood cells, the “concentration below which minimal lysis is caused” value is listed as “below 90 μM”. Besides, the “cell viability on co-incubation” value in the data set with HMLER-shEcad cells was “cannot be improved”. In data set [10] (pH 4.8), the “Peptide Concentration-induced 50% ANTS/DPX leakage at pH 4.8 (L/P) 3POPC/1POPG Vesicle” value is 386 L/P. Moreover, in data set [10], the “Peptide Concentration-induced 50% ANTS/DPX leakage at pH 7.4 (L/P) 3POPC/1POPG Vesicle” value is recorded as 657 L/P. Also, the “liposome leakage activity from anionic vesicle at pH 4.8” value in [10] (compared with zwitterionic vesicle, pH 4.8) is “relatively higher liposome leakage activity”.

`CC[C@@H](C(=O)[C@@H](C)[C@@H](O)[C@H](C)[C@@H]1O[C@@H]([C@@H](CC)C(=O)O)CC[C@@H]1C)[C@H]1O[C@]2(C=C[C@@H](O)[C@]3(CC[C@@](C)([C@H]4CC[C@](O)(CC)[C@H](C)O4)O3)O2)[C@H](C)C[C@@H]1C` [Salinomycin, reference compound]: the IC50 in [1] (Homo sapiens, MCF-10A, 72 h) was 9760 ± 2280 nM; in data set [2] (Homo sapiens, read-out: IC50 in mammospheres), 22000 ± 5000 nM; in data set [4] (Homo sapiens, HEK-293T, 72 h), 410 ± 100 nM; in data set [5] (Homo sapiens, 72 h, read-out: IC50 HMLER-shEcad), 920 ± 280 nM; in data set [5] (Homo sapiens, read-out: IC50 against two-dimensional HMLER-shEcad) it was 370 ± 0.5 nM; in data set [6] (Homo sapiens, 72 h) it was 370 ± 80 nM. The “fold decrease in activity, mammospheres versus two-dimensional HMLER-shEcad” value in [2] was 63 fold.

As to “D-form peptide of the selected sequence EEK (GLLELLELLLKAAGW) (H-G[dL][dL][dE][dL][dL][dE][dL][dL][dL][dK][dA][dA]G[dW]-NH2) [D-form EEK]”, the IC50 in [1] (72 hr, MTT) was 1070 ± 100 nM; in data set [3], 4780 ± 20 nM; in [4] (72 hr, MTT), 2820 ± 70 nM; in data set [5] (setting [11]), 290 ± 10 nM; in data set [6] (72 hr, MTT) it was 290 ± 10 nM. In addition, in the data set on HMLER-shEcad cells, the “cell viability on co-incubation” value is reported as “cannot be improved”.

Turning to GLLKLLHLLLKAAG [KHK], the IC50 in data set [1] (72 hr, MTT) amounted to 1810 ± 50 nM; in data set [3], 12900 ± 1240 nM; in data set [4] (72 hr, MTT), 3550 ± 780 nM; in data set [5] (setting [11]) it was 1400 ± 140 nM; in data set [6] (72 hr, MTT), 2590 ± 920 nM. Further, in [7], the “Peptide Concentration-induced 50% ANTS/DPX leakage at pH 4.8 (L/P) POPC Vesicle” value is given as 140 L/P. Also, the “Peptide Concentration-induced 50% ANTS/DPX leakage at pH 7.4 (L/P) POPC Vesicle” value in [7] amounted to 1153 L/P. Also, the “Lipid Concentration-induced 50% Peptide Binding (L/P) 3POPC/1POPG Vesicle” value in data set [8] is 0.38 L/P. Moreover, the “Lipid Concentration-induced 50% Peptide Binding (L/P) POPC Vesicle” value in data set [9] is given as 0.17 L/P. In data set [10] (pH 4.8), the “Peptide Concentration-induced 50% ANTS/DPX leakage at pH 4.8 (L/P) 3POPC/1POPG Vesicle” value amounted to 53 L/P. Besides, the “Peptide Concentration-induced 50% ANTS/DPX leakage at pH 7.4 (L/P) 3POPC/1POPG Vesicle” value in data set [10] amounted to 193 L/P.

For the compound GLLKLLKLLLEAAG [KKE], the IC50 stood at 2900 ± 570 nM in data set [1] (72 hr, MTT); 12800 ± 1200 nM in [3]; 4400 ± 140 nM in data set [4] (72 hr, MTT); 1700 nM in data set [5] (setting [11]); 2050 ± 640 nM in data set [6] (72 hr, MTT). For the same compound, the “Peptide Concentration-induced 50% ANTS/DPX leakage at pH 4.8 (L/P) POPC Vesicle” value in data set [7] worked out at 143 L/P. Moreover, the “Peptide Concentration-induced 50% ANTS/DPX leakage at pH 7.4 (L/P) POPC Vesicle” value in data set [7] worked out at 1133 L/P. Also, the “Lipid Concentration-induced 50% Peptide Binding (L/P) 3POPC/1POPG Vesicle” value in [8] is 0.44 L/P. In [9], the “Lipid Concentration-induced 50% Peptide Binding (L/P) POPC Vesicle” value is 0.48 L/P. Further, the “Peptide Concentration-induced 50% ANTS/DPX leakage at pH 4.8 (L/P) 3POPC/1POPG Vesicle” value in [10] (pH 4.8) turned out to be 131 L/P. In addition, the “Peptide Concentration-induced 50% ANTS/DPX leakage at pH 7.4 (L/P) 3POPC/1POPG Vesicle” value in [10] was determined as 346 L/P.

With GLLKLLKLLLHAAG [KKH], the IC50 came to 1750 ± 350 nM in data set [1] (72 hr, MTT); 13300 ± 990 nM in data set [3]; 4000 ± 280 nM in data set [4] (72 hr, MTT); 2200 ± 420 nM in data set [5] (setting [11]); 2400 ± 850 nM in data set [6] (72 hr, MTT). Besides, the “Peptide Concentration-induced 50% ANTS/DPX leakage at pH 4.8 (L/P) POPC Vesicle” value in data set [7] is 164 L/P. For the same compound, the “Peptide Concentration-induced 50% ANTS/DPX leakage at pH 7.4 (L/P) POPC Vesicle” value in data set [7] is 2119 L/P. Moreover, in data set [8], the “Lipid Concentration-induced 50% Peptide Binding (L/P) 3POPC/1POPG Vesicle” value turned out to be 0.48 L/P. Besides, the “Lipid Concentration-induced 50% Peptide Binding (L/P) POPC Vesicle” value in data set [9] is 0.83 L/P. Further, the “Peptide Concentration-induced 50% ANTS/DPX leakage at pH 4.8 (L/P) 3POPC/1POPG Vesicle” value in [10] (pH 4.8) worked out at 49 L/P. Further, in [10], the “Peptide Concentration-induced 50% ANTS/DPX leakage at pH 7.4 (L/P) 3POPC/1POPG Vesicle” value is recorded as 227 L/P.

Take GLLKLLKLLLKAAG [KKK]: the IC50 in data set [1] (72 hr, MTT) stood at 1370 ± 240 nM; in [3], 9650 ± 1200 nM; in [4] (72 hr, MTT), 3700 ± 140 nM; in data set [5] (setting [11]), 1350 ± 400 nM; in data set [6] (72 hr, MTT) it was 1570 ± 240 nM. In addition, the “Peptide Concentration-induced 50% ANTS/DPX leakage at pH 4.8 (L/P) POPC Vesicle” value in data set [7] stood at 156 L/P. Besides, the “Peptide Concentration-induced 50% ANTS/DPX leakage at pH 7.4 (L/P) POPC Vesicle” value in data set [7] came to 1369 L/P. In data set [8], the “Lipid Concentration-induced 50% Peptide Binding (L/P) 3POPC/1POPG Vesicle” value turned out to be 1.70 L/P. Also, the “Lipid Concentration-induced 50% Peptide Binding (L/P) POPC Vesicle” value in data set [9] is recorded as 1.25 L/P. Further, the “Peptide Concentration-induced 50% ANTS/DPX leakage at pH 4.8 (L/P) 3POPC/1POPG Vesicle” value in data set [10] (pH 4.8) is listed as 81 L/P. Moreover, the “Peptide Concentration-induced 50% ANTS/DPX leakage at pH 7.4 (L/P) 3POPC/1POPG Vesicle” value in data set [10] worked out at 115 L/P.
